Assay results from US9993487B2 (Universite de Liege, priority 2014, dated 2018).

Key:
[1] = Stability of betamethasone dipropionate under autoclave; type: physicochemical
IL13 = experiment: OVA model: IL13 ELISA in lung protein extracts; type: in vivo, BALB/c mice; settings: FIG. 3
Procedure: In order to study modulation of airway inflammation, BALB/c mice of about 6 to about 8 weeks old are sensitized by intraperitoneal injection of about 10 μg ovalbumin (OVA) (Sigma Aldrich, Schnelldorf, Germany) emulsified in aluminum hydroxide (AlumInject; Perbio, Erembodegem, Belgium) on days 0 (DO) and 7 (D7). Mice are subsequently exposed to allergens by daily inhalation of an aerosol of OVA about 1%, for about 30 minutes, generated by ultrasonic nebulizer (Devilbiss 2000), from day 21 to day 25. Mice are subjected to about 50 μl intra-nasal instillations from day 18 to day 24 and are sacrificed on day 26, as previously reported by Cataldo et al.: Am. J. Pathol. 161 (2):491-498 (2002), which is incorporated herein in its entirety by reference. Placebo mice are intra-nasal injected with PBS. As stated above, the left lung is excised and frozen immediately at about −80° C. and then disrupted in liquid N2 by using a Mikro-Dismembrator (Braun Biotech International, Gmbh Melsungen, Germany) to form a homogenized powder. […] IL13 levels are measured in non-pooled lung protein samples by ELISA (duoset kit, R&D Systems, Abingdon, United Kingdom) following manufacturer's instructions. […]

[2] = tested on: Cigarette smoke-exposed mice; experiment: Cigarette smoke exposure model: BALF neutrophils; type: in vivo, C57BL/6 mice; settings: budesonide alone about 500 μg/ml
Procedure: BALF supernatant is collected for protein assessment while cells are used for differential cell counts. Differential cell counts based on morphologic criteria are carried out on cytocentrifuged preparations after staining with haematoxylin-eosin (Diff-Quick, Dade, Belgium). Cells are recovered by gentle manual aspiration. After centrifugation of bronchoalveolar fluid (BALF) (about 1200 rpm for about 10 minutes, at about 4° C.), the supernatant is frozen at about −80° C. for protein assessment and the cell pellet is re-suspended in about 1 ml PBS-EDTA about 0.05 mM. The differential cell counts are performed on cytocentrifuged preparations (Cytospin) after staining with Diff-Quick (Dade, Belgium).
C57BL/6 mice are exposed to 10 cigarettes 5 days per week during 6 weeks using the Inexpose® system (Scireq, Montreal, Canada). Mice are treated by an about 50 μl intra-nasal injection 5 days per week during 6 weeks. Mice are sacrificed on day 43. Placebo mices also called sham exposed mices are injected with PBS.
Bronchoalveolar lavage fluid (BALF) analysis is the same as previously described in Example 3 (model of airway obstruction and inflammation).
Results of inflammatory cells in bronchoalveolar lavage fluid number were expressed as mean +/− SEM and the comparison between the groups is performed using Mann-Whitney test. Tests are performed using GraphPad Prism 5. […]

SMILES	stability under autoclave [1]	IL13 levels in lung tissue after allergen exposure (IL13; budesonide about 100 μg/ml compared to budesonide about 100 μg/ml—cyclodextrin about 10 mM)	IL13 levels in lung tissue after allergen exposure (IL13; budesonide about 250 μg/ml compared to complex budesonide about 250 μg/ml—cyclodextrin about 10 mM)	inflammation level in BALF of treated mice [2]	Percentage of neutrophils (+/−SEM) in BALF, Neutrophils (%) ([2]; about 50 μl intra-nasal 5 days per week during 6 weeks)
CCC(=O)OCC(=O)[C@@]1(OC(=O)CC)[C@@H](C)C[C@H]2[C@@H]3CCC4=CC(=O)C=C[C@]4(C)[C@@]3(F)[C@@H](O)C[C@@]21C [Betamethasone Dipropionate]	degrades under autoclave				
CCCC1O[C@@H]2C[C@H]3[C@@H]4CCC5=CC(=O)C=C[C@]5(C)[C@H]4[C@@H](O)C[C@]3(C)[C@]2(C(=O)CO)O1 (stereo partly drawn) [budesonide, 16,17-(butylidenebis(oxy))-11,21-dihydroxy-, (11-β3,16-a)-pregna-1,4-diene-3,20-dione]		higher IL13 levels	higher levels of IL13	significantly not efficient enough	about 9.64%
